Measurements as given in patent JP2008208074A, “ピラジン誘導体を有効成分とする抗がん剤” (Toray Industries Inc, priority 2007, dated 2008).

Key:
[1] = system: tumour derived from mouse colon cancer cell line Colon26 [マウス結腸癌細胞株であるColon26細胞由来の腫瘍]; assay: Tumour growth suppression in mouse colon cancer model (Example 2); type: in vivo; settings: sodium salt of Reference Example 72; BALB/c mice, male, Colon26 tumour s.c.; 20 mg/kg i.v. once daily day 0-3; n=7; day 3
[2] = Body weight and side effects in mouse colon cancer model (Example 2); type: in vivo; settings: sodium salt of Reference Example 72, 20 mg/kg i.v. once daily day 0-3

For `O=C(O)Cc1ccn(-c2cncc(-n3ncc4ccc(NC5CCCC5)cc43)n2)c1` [参考例72, 2-(1-(6-(6-(シクロペンチルアミノ)-1H-インダゾール-1-イル)ピラジン-2-イル)-1H-ピロール-3-イル)酢酸, ナトリウム塩], which “suppression of estimated tumour volume compared with control group” value [1] is on record?
The value was 29%.

What about the “body weight difference between treated and control group” value ([2]; n=7, day 4, result in words) of the same compound?
The value was “差は認められなかった”.

What about the body weight ([2]; BALB/c mice with Colon26 tumour, n=7, weighed day 4, control group 22.9±0.5 g) of the same compound?
Its body weight is 22.7 ± 0.5 g.

And the side effects ([2]; mouse, individual level, concluded from body weight, result in words)?
Its side effects is “副作用を示すことなく”.
